# Test results reported in US6706663B2, “Herbicidal 3-heterocyclic substituted benzisothiazole and benzisoxazole compounds” (Wyeth, priority 2000, dated 2004).
# What was measured:
# [1] = test system: SETVI (Setaria viridis); assay: Postemergence herbicidal evaluation; type: in vivo, (L.) Beau; details: postemergence
# Method in brief: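 Seedlings about two weeks old were sprayed with compound in 50/50 acetone/water plus 0.5% TWEEN 20, at the equivalent of about 0.0040 to 1.000 kg/ha. Plants were kept in a greenhouse and visually rated 0-9 against a control four to five weeks after treatment. Repeat tests were averaged.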
# [2] = test system: GALAP (Galium aparine); assay: Postemergence herbicidal evaluation; type: in vivo; details: postemergence
# Method in brief: (§1)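 Seedlings grown about two weeks in flats, sprayed, then kept under standard greenhouse care. Rated visually 4–5 weeks after treatment on a 0–9 scale (stand, vigour, malformation, size, chlorosis, overall appearance) relative to untreated control; repeat tests averaged.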
# [3] = test system: ABUTH (Abutilon theophrasti); assay: Preemergence herbicidal evaluation; type: in vivo, Medic.; details: rated 4-5 weeks after treatment
# [4] = test system: MOOVA (Monochoria vaginalis); assay: Flooded paddy, preemergence weed control; type: in vivo, Presl.; details: rated 3-4 weeks after treatment, 0-9 rating scale
# Method in brief: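 Visual 0–9 ratings versus controls scored stand, vigor, malformation, size, chlorosis and overall appearance. Plants grew from seeds or propagating organs sown 0.5 cm deep in silt loam, with water held 1.5–3 cm above the soil for the whole test under greenhouse care.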
# [5] = test system: SETVI (Setaria viridis); assay: Preemergence herbicidal evaluation; type: in vivo, (L.) Beau; details: rated 4-5 weeks after treatment
# Method in brief: (§2)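 Seeds planted in potting soil cups and sprayed preemergence with aqueous acetone compound solution. Greenhouse-grown; rated 4–5 weeks after treatment on a 0-9 visual scale (stand, vigor, malformation, size, chlorosis, appearance) versus control.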
# [6] = test system: ECHCG (Echinochloa crus-galli); assay: Preemergence herbicidal evaluation; type: in vivo, (L.) Beau; details: rated 4-5 weeks after treatment
# Method in brief: as §2
# [7] = test system: ORYSAT (Rice, Tebonnet); assay: Flooded paddy, post-transplant rice tolerance; type: in vivo, Oryza sativa, (L.) Tebonnet; details: flooded paddy, post-transplant rice, rated 3-4 weeks after treatment, 0-9 rating scale
# Method in brief: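 Ten-day-old seedlings, 2/pot, silt loam; flood kept 1.5–3 cm over soil; herbicide applied post-transplant; greenhouse; score 0–9 visual vs control.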
# [8] = test system: CYPSE (Cyperus serotinus); assay: Flooded paddy, preemergence weed control; type: in vivo, Rottb.; details: rated 3-4 weeks after treatment, 0-9 rating scale
# Method in brief: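 Seeds or propagules were planted 0.5 cm deep in silt loam and flooded to 1.5–3 cm. Compounds in 50/50 v/v aqueous/acetone were pipetted into the flood water at about 0.0080 to 0.1250 kg/ha. After 3–4 weeks in the greenhouse, effect was rated visually on a 0–9 scale versus untreated control.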
# [9] = test system: IPOHE (Ipomoea hederacea); assay: Postemergence herbicidal evaluation; type: in vivo, (L.) Jacq.; details: postemergence
# Method in brief: as §1
# [10] = test system: TRZAWR (Wheat, Winter, cv Riband); assay: Postemergence herbicidal evaluation; type: in vivo, Triticum aestivum; details: postemergence
# Method in brief: as §1
# [11] = test system: GLXMAW (Soybean, Williams); assay: Postemergence herbicidal evaluation; type: in vivo, Glycine max, (L.) Merr. cv Williams; details: postemergence
# Method in brief: as §1
# [12] = test system: ABUTH (Abutilon theophrasti); assay: Postemergence herbicidal evaluation; type: in vivo, Medic.; details: postemergence
# Method in brief: as §1
# [13] = test system: ZEAMX (Corn, Field); assay: Preemergence herbicidal evaluation; type: in vivo, Zea mays, L.; details: rated 4-5 weeks after treatment
# [14] = test system: CHEAL (Chenopodium album); assay: Preemergence herbicidal evaluation; type: in vivo, L.; details: rated 4-5 weeks after treatment
# Method in brief: as §2
# [15] = test system: AMBEL (Ambrosia artemisifolia); assay: Preemergence herbicidal evaluation; type: in vivo, L.; details: rated 4-5 weeks after treatment
# Method in brief: as §2
# [16] = test system: CASOB (Cassia obtusifolia); assay: Preemergence herbicidal evaluation; type: in vivo, L.; details: rated 4-5 weeks after treatment
# Method in brief: as §2
compound,measurement,setting,value
"CC1CC(C)(C)OC(c2nsc3ccc(-n4c(=O)cc(C(F)(F)F)n(C)c4=O)cc23)O1 (stereo not shown) [Compound 55, 1-methyl-6-(trifluoromethyl)-3-[3-(4,4,6-trimethyl-m-dioxan-2-yl)-1,2-benzisothiazol-5-yl]uracil]",SETVI herbicidal rating,[1]; rate 0.0320 kg/ha,1.0
same,SETVI herbicidal rating,[1]; rate 0.0620 kg/ha,1.0
same,GALAP herbicidal rating,[2]; rate 0.0320 kg/ha,2.0
same,GALAP herbicidal rating,[2]; rate 0.0620 kg/ha,2.0
same,Preemergence herbicidal rating ABUTH,[3]; Rate 0.0620 kg/ha,9.0
same,Preemergence herbicidal rating ABUTH,[3]; Rate 0.1250 kg/ha,9.0
same,Preemergence herbicidal rating ABUTH,[3]; Rate 0.2500 kg/ha,9.0
same,"herbicidal rating, MOOVA",[4]; rate 0.0320 kg/ha,9.0
same,"herbicidal rating, MOOVA",[4]; rate 0.1250 kg/ha,9.0
same,Preemergence herbicidal rating SETVI,[5]; Rate 0.0620 kg/ha,9.0
same,Preemergence herbicidal rating SETVI,[5]; Rate 0.1250 kg/ha,9.0
same,Preemergence herbicidal rating SETVI,[5]; Rate 0.2500 kg/ha,9.0
same,Preemergence herbicidal rating ECHCG,[6]; Rate 0.0620 kg/ha,9.0
same,Preemergence herbicidal rating ECHCG,[6]; Rate 0.1250 kg/ha,9.0
same,Preemergence herbicidal rating ECHCG,[6]; Rate 0.2500 kg/ha,9.0
same,"herbicidal rating, ORYSAT (rice tolerance)",[7]; rate 0.0080 kg/ha,3.0
same,"herbicidal rating, ORYSAT (rice tolerance)",[7]; rate 0.0320 kg/ha,4.5
same,"herbicidal rating, ORYSAT (rice tolerance)",[7]; rate 0.1250 kg/ha,9.0
same,"herbicidal rating, CYPSE",[8]; rate 0.0320 kg/ha,9.0
same,"herbicidal rating, CYPSE",[8]; rate 0.1250 kg/ha,9.0
same,IPOHE herbicidal rating,[9]; rate 0.0320 kg/ha,9.0
same,IPOHE herbicidal rating,[9]; rate 0.0620 kg/ha,9.0
same,TRZAWR herbicidal rating,[10]; rate 0.0320 kg/ha,3.0
same,TRZAWR herbicidal rating,[10]; rate 0.0620 kg/ha,5.0
same,GLXMAW herbicidal rating,[11]; rate 0.0320 kg/ha,4.5
same,GLXMAW herbicidal rating,[11]; rate 0.0620 kg/ha,5.0
same,ABUTH herbicidal rating,[12]; rate 0.0320 kg/ha,9.0
same,ABUTH herbicidal rating,[12]; rate 0.0620 kg/ha,9.0
same,Preemergence herbicidal rating ZEAMX,[13]; Rate 0.0620 kg/ha,8.0
same,Preemergence herbicidal rating ZEAMX,[13]; Rate 0.1250 kg/ha,9.0
same,Preemergence herbicidal rating ZEAMX,[13]; Rate 0.2500 kg/ha,8.0
same,Preemergence herbicidal rating CHEAL,[14]; Rate 0.0620 kg/ha,9.0
same,Preemergence herbicidal rating CHEAL,[14]; Rate 0.1250 kg/ha,9.0
same,Preemergence herbicidal rating CHEAL,[14]; Rate 0.2500 kg/ha,9.0
same,Preemergence herbicidal rating AMBEL,[15]; Rate 0.0620 kg/ha,9.0
same,Preemergence herbicidal rating AMBEL,[15]; Rate 0.1250 kg/ha,9.0
same,Preemergence herbicidal rating AMBEL,[15]; Rate 0.2500 kg/ha,9.0
same,Preemergence herbicidal rating CASOB,[16]; Rate 0.0620 kg/ha,3.5
same,Preemergence herbicidal rating CASOB,[16]; Rate 0.1250 kg/ha,7.5
same,Preemergence herbicidal rating CASOB,[16]; Rate 0.2500 kg/ha,7.0
"Cn1c(C(F)(F)F)cc(=O)n(-c2ccc3snc(C4OC(C)(C)C(C)(C)O4)c3c2)c1=O [Compound 56, 1-methyl-3-[3-(4,4,5,5-tetramethyl-1,3-dioxolan-2-yl)-1,2-benzisothiazol-5-yl]-6-(trifluoromethyl)uracil]",SETVI herbicidal rating,[1]; rate 0.0320 kg/ha,2.0
same,SETVI herbicidal rating,[1]; rate 0.0620 kg/ha,4.0
same,GALAP herbicidal rating,[2]; rate 0.0320 kg/ha,3.0
same,GALAP herbicidal rating,[2]; rate 0.0620 kg/ha,3.0
same,Preemergence herbicidal rating ABUTH,[3]; Rate 0.0620 kg/ha,9.0
same,Preemergence herbicidal rating ABUTH,[3]; Rate 0.1250 kg/ha,9.0
same,Preemergence herbicidal rating ABUTH,[3]; Rate 0.2500 kg/ha,9.0
same,"herbicidal rating, MOOVA",[4]; rate 0.0080 kg/ha,9.0
same,"herbicidal rating, MOOVA",[4]; rate 0.0320 kg/ha,9.0
same,"herbicidal rating, MOOVA",[4]; rate 0.1250 kg/ha,9.0
same,Preemergence herbicidal rating SETVI,[5]; Rate 0.0620 kg/ha,8.5
same,Preemergence herbicidal rating SETVI,[5]; Rate 0.1250 kg/ha,9.0
same,Preemergence herbicidal rating SETVI,[5]; Rate 0.2500 kg/ha,9.0
same,Preemergence herbicidal rating ECHCG,[6]; Rate 0.0620 kg/ha,9.0
same,Preemergence herbicidal rating ECHCG,[6]; Rate 0.1250 kg/ha,9.0
same,Preemergence herbicidal rating ECHCG,[6]; Rate 0.2500 kg/ha,9.0
same,"herbicidal rating, ORYSAT (rice tolerance)",[7]; rate 0.0080 kg/ha,1.0
same,"herbicidal rating, ORYSAT (rice tolerance)",[7]; rate 0.0320 kg/ha,4.3
same,"herbicidal rating, ORYSAT (rice tolerance)",[7]; rate 0.1250 kg/ha,8.0
same,"herbicidal rating, CYPSE",[8]; rate 0.0080 kg/ha,0.0
same,"herbicidal rating, CYPSE",[8]; rate 0.0320 kg/ha,5.5
same,"herbicidal rating, CYPSE",[8]; rate 0.1250 kg/ha,9.0
same,IPOHE herbicidal rating,[9]; rate 0.0320 kg/ha,9.0
same,IPOHE herbicidal rating,[9]; rate 0.0620 kg/ha,9.0
same,TRZAWR herbicidal rating,[10]; rate 0.0320 kg/ha,3.5
same,TRZAWR herbicidal rating,[10]; rate 0.0620 kg/ha,4.5
same,GLXMAW herbicidal rating,[11]; rate 0.0320 kg/ha,6.0
same,GLXMAW herbicidal rating,[11]; rate 0.0620 kg/ha,6.5
same,ABUTH herbicidal rating,[12]; rate 0.0320 kg/ha,9.0
same,ABUTH herbicidal rating,[12]; rate 0.0620 kg/ha,9.0
same,Preemergence herbicidal rating ZEAMX,[13]; Rate 0.0620 kg/ha,7.0
same,Preemergence herbicidal rating ZEAMX,[13]; Rate 0.1250 kg/ha,7.0
same,Preemergence herbicidal rating ZEAMX,[13]; Rate 0.2500 kg/ha,8.0
same,Preemergence herbicidal rating CHEAL,[14]; Rate 0.0620 kg/ha,9.0
same,Preemergence herbicidal rating CHEAL,[14]; Rate 0.1250 kg/ha,9.0
same,Preemergence herbicidal rating CHEAL,[14]; Rate 0.2500 kg/ha,9.0
same,Preemergence herbicidal rating AMBEL,[15]; Rate 0.0620 kg/ha,9.0
same,Preemergence herbicidal rating AMBEL,[15]; Rate 0.1250 kg/ha,9.0
same,Preemergence herbicidal rating AMBEL,[15]; Rate 0.2500 kg/ha,9.0
same,Preemergence herbicidal rating CASOB,[16]; Rate 0.0620 kg/ha,4.5
same,Preemergence herbicidal rating CASOB,[16]; Rate 0.1250 kg/ha,5.5
same,Preemergence herbicidal rating CASOB,[16]; Rate 0.2500 kg/ha,9.0
